Measured values from patent US20220265629A1, “TREATMENT OF SYSTOLIC DYSFUNCTION AND HEART FAILURE WITH REDUCED EJECTION FRACTION WITH THE COMPOUND (R)-4-(1-((3-(DIFLUOROMETHYL)-1-METHYL-1H-PYRAZOL-4-YL)SULFONYL)-1-FLUOROETHYL)-N-(ISOXAZOL-3-YL)PIPERIDINE-1-CARBOXAMIDE” (MyoKardia, Inc., priority 2019, published 2022).
Where two headings read alike, the source gives them in different places.

Test: Food effect cross-over study, 200 mg (25 mg tablets), healthy volunteers: plasma pharmacokinetics
Format: in vivo, human
Conditions: for Plasma concentration, Geometric Mean / Plasma concentration, Mean / Plasma concentration, Median: Predose; for concentration at 1 h / concentration at 2 h / concentration at 3 h / concentration at 4 h / concentration at 5 h / concentration at 6 h / concentration at 9 h / concentration at 12 h / concentration at 18 h / concentration at 24 h / concentration at 36 h: human, plasma, oral; for concentration at 1 h: 1 hour postdose; for concentration at 2 h: 2 hours postdose; for concentration at 3 h: 3 hours postdose; for concentration at 4 h: 4 hours postdose; for concentration at 5 h: 5 hours postdose; for concentration at 6 h: 6 hours postdose; for concentration at 9 h: 9 hours postdose; for concentration at 12 h: 12 hours postdose; for concentration at 18 h: 18 hours postdose; for concentration at 24 h: 24 hours postdose; for concentration at 36 h: 36 hours postdose
Source text: This example describes a clinical study for establishing, in healthy volunteers, the effect of a high fat, high caloric meal on the PK profile of Compound I, as compared to administration of the drug in the fasted state. The study also was intended to determine the safety and tolerability after a single oral dose of Compound I in the fed and fasted state in healthy volunteers. The measurements of PK, PD, and other clinical parameters were done as described in Example 1 above.
This study was an open-label, randomized, two-period cross-over study in healthy volunteers aged 18-55 years. Subjects were screened up to 28 days before the first treatment period. Subjects were admitted to the clinical site on Day −1 (the day before dosing) of Period 1. Approximately half of the subjects randomly received a single dose of Compound I on Day 1 of the first treatment period after the ingestion of a high fat, high caloric breakfast, and the remainder were closed in the fasted state. Any subject with a preclose resting HR≥95 beats per minute (bpm) was considered ineligible and was not treated. Any subjects with an acute gastrointestinal disorder which could impact drug/food absorption (e.g., vomiting, diarrhea) were rescheduled. Subjects were confined to the clinic until Day 4, and discharged after the 72-hour postclose PK and laboratory samples and vital signs were obtained. After a washout between dosing from 7 to 10 days (or, after consultation with the Investigator, up to 21 days after initial dosing if the subject was unable to attend within the 7 to 10-day window), the subject was admitted for Period 2. The sequence of fed/fasted versus fasted/fed periods was randomized. Subjects returned after the second treatment period for a safety follow-up visit on Day 7 (±1 day).
In both treatment periods, Compound I was administered with 240 mL of water. In the fasted state, the subjects fasted for 10 hours before and for 4 hours after the administration of Compound I. Water could have been ingested up to 1 hour before and after 1 hour post dosing. In the fed state, the subjects fasted for 10 hours before and for 4 hours after the ingestion of the meal, but could have ingested water up to 1 hour before and 1 hour after dosing. In the fed state, the subjects started ingesting the high fat, high caloric meal within 30 minutes prior to Compound I administration and finished the meal within 30 minutes. The meal contained approximately 800 to 1000 calories with about 50% of the calories from fat. The meal consisted of approximately 150 calories from protein, 250 calories from carbohydrate, and 500-600 calories from fat. An example of the meal was a breakfast consisting of two eggs fried in butter, two strips of bacon, two slices of buttered toast, 4 ounces of hash brown potatoes, and 8 ounces of whole milk.
Each subject received two oral doses of 200 mg of Compound I formulated as 25 mg tablets (8 tablets) in a randomized, cross-over fashion, once in the fasted state and the other time after the ingestion of a high fat, high caloric breakfast. There was a washout of between 7 and 21 days between the administrations of the two closes. The Compound I drug substance was a crystalline, free-base, synthetic molecule with a molecular weight of 435.4.
Plasma drug concentrations were measured as described in Example 1 above. Blood samples to measure Compound I plasma concentration were collected at various time points, including on Day 1 preclose (1 hour prior to dosing) and at 1 (±5 min), 2 (±5 min), 3 (±5 min), 4 (+10 min), 5 (+10 min), 6 (+10 min), 9 (+20 min), 12 (+20 min), 18 (+30 min), 24 (+30 min), 36 (+30 min), 48 (+30 min), and 72 (+30 min) hours postclose on both treatment periods.
To assess the effect of food on the PK of Compound I, the two one-sided t-test procedure was used to construct 90% CI around the geometric mean ratios (fed/fasted) of plasma AUCinf, AUClast, and Cmax. […]

[1] = Fasted, read-out: Plasma concentration, Geometric Mean
[2] = Fasted, read-out: Plasma concentration, Mean
[3] = Fasted, read-out: Plasma concentration, Median
[4] = Fed, read-out: Plasma concentration, Geometric Mean
[5] = Fed, read-out: Plasma concentration, Mean
[6] = Fed, read-out: Plasma concentration, Median

Cn1cc(S(=O)(=O)[C@@](C)(F)C2CCN(C(=O)Nc3ccon3)CC2)c(C(F)F)n1 [Compound I, (R)-4-(1-((3-(difluoromethyl)-1-methyl-1H-pyrazol-4-yl)sulfonyl)-1-fluoroethyl)-N-(isoxazol-3-yl)piperidine-1-carboxamide]
exposure (Cmax) higher in the fed state versus the fasted state: ~60% | AUCinf, Geometric Mean Ratio - Fed/Fasted (N = 11): 154.28 % of Reference | AUClast, Geometric Mean Ratio - Fed/Fasted (N = 11): 154.02 % of Reference | Cmax, Geometric Mean Ratio - Fed/Fasted (N = 11): 158.11 % of Reference | Plasma concentration, Geometric Mean (Fasted): 0.000 ng/mL | Plasma concentration, Mean (Fasted): 0.000 ng/mL | Plasma concentration, Median (Fasted): 0.000 ng/mL | Plasma concentration, Geometric Mean (Fed): 0.000 ng/mL | Plasma concentration, Mean (Fed): 0.092 ng/mL | Plasma concentration, Median (Fed): 0.000 ng/mL | Tmax, Median (range) (fasted state): 5 h | Tmax, Median (range) (fed state): 5.5 h | concentration at 1 h [1]: 1180 ng/mL | concentration at 1 h [2]: 1360 ng/mL | concentration at 1 h [3]: 1600 ng/mL | concentration at 1 h [4]: 916 ng/mL | concentration at 1 h [5]: 1320 ng/mL | concentration at 1 h [6]: 828 ng/mL | concentration at 2 h [1]: 1780 ng/mL | concentration at 2 h [2]: 1830 ng/mL | concentration at 2 h [3]: 1820 ng/mL | concentration at 2 h [4]: 1470 ng/mL | concentration at 2 h [5]: 1920 ng/mL | concentration at 2 h [6]: 1160 ng/mL | concentration at 3 h [1]: 2090 ng/mL | concentration at 3 h [2]: 2120 ng/mL | concentration at 3 h [3]: 2180 ng/mL | concentration at 3 h [4]: 2000 ng/mL | concentration at 3 h [5]: 2340 ng/mL | concentration at 3 h [6]: 2340 ng/mL | concentration at 4 h [1]: 2190 ng/mL | concentration at 4 h [2]: 2220 ng/mL | concentration at 4 h [3]: 2280 ng/mL | concentration at 4 h [4]: 2610 ng/mL | concentration at 4 h [5]: 2810 ng/mL | concentration at 4 h [6]: 3030 ng/mL | concentration at 5 h [1]: 2270 ng/mL | concentration at 5 h [2]: 2310 ng/mL | concentration at 5 h [3]: 2400 ng/mL | concentration at 5 h [4]: 3040 ng/mL | concentration at 5 h [5]: 3150 ng/mL | concentration at 5 h [6]: 3340 ng/mL | concentration at 6 h [1]: 2170 ng/mL | concentration at 6 h [2]: 2220 ng/mL | concentration at 6 h [3]: 2320 ng/mL | concentration at 6 h [4]: 3140 ng/mL | concentration at 6 h [5]: 3200 ng/mL | concentration at 6 h [6]: 3320 ng/mL | concentration at 9 h [1]: 1970 ng/mL | concentration at 9 h [2]: 2000 ng/mL | concentration at 9 h [3]: 2040 ng/mL | concentration at 9 h [4]: 3050 ng/mL | concentration at 9 h [5]: 3080 ng/mL | concentration at 9 h [6]: 3220 ng/mL | concentration at 12 h [1]: 1720 ng/mL | concentration at 12 h [2]: 1740 ng/mL | concentration at 12 h [3]: 1800 ng/mL | concentration at 12 h [4]: 2780 ng/mL | concentration at 12 h [5]: 2840 ng/mL | concentration at 12 h [6]: 2720 ng/mL | concentration at 18 h [1]: 1290 ng/mL | concentration at 18 h [2]: 1320 ng/mL | concentration at 18 h [3]: 1360 ng/mL | concentration at 18 h [4]: 2030 ng/mL | concentration at 18 h [5]: 2080 ng/mL | concentration at 18 h [6]: 2060 ng/mL | concentration at 24 h [1]: 1070 ng/mL | concentration at 24 h [2]: 1100 ng/mL | concentration at 24 h [3]: 1170 ng/mL | concentration at 24 h [4]: 1660 ng/mL | concentration at 24 h [5]: 1720 ng/mL | concentration at 24 h [6]: 1670 ng/mL | concentration at 36 h [1]: 546 ng/mL | concentration at 36 h [2]: 578 ng/mL | concentration at 36 h [3]: 596 ng/mL
